Test results reported in US11584765B2 (priority 2017, dated 2023).

The molecules below were run on C57BL/6 mice (assay: animal or person). Conditions: Mus musculus, sc, 0.5 h, s.c. administration, 30 min, 55° C. water, read-out: ED50 (mg/kg) at 30 min on C57BL/6 mice in Warm-water Tail-flick Test.
Format: in vivo
In the case of `CC(=O)Nc1ccc(CN2CCC(CCc3ccccc3)(COc3ccccc3)CC2)cc1` [Compound 114, N-(4-((4-phenethyl-4-(phenoxy-methyl)piperidin-1-yl)methyl)phenyl)acet-amide], the ED50 is reported as > 10 mg/kg. In the case of `COc1ccsc1CN1CCC(CCc2ccccc2)(C2CCCO2)C1` (stereo not shown) [Compound 223, 1-((3-methoxythiophen-2-yl)methyl)-3-phenethyl-3-(tetrahydrofuran-2-yl)pyrrolidine], the ED50 is reported as > 10 mg/kg. In the case of `CCOC[C@]1(CCc2ccccc2)CCN(Cc2ccc(NC(C)=O)cc2)C1` [Compound 205, (R)-N-(4-((3-(ethoxymethyl)-3-phenethylpyrrolidin-1-yl)methyl)phenyl)acetamide], the ED50 is reported as < 10 mg/kg. For `COc1ccc(CN2CCC(CCc3ccccc3)(C3CCCO3)C2)cn1` (stereo not shown) [Compound 274, 2-methoxy-5-((3-phenethyl-3-(tetrahydrofuran-2-yl)pyrrolidin-1-yl)methyl)pyridine], the ED50 was > 10 mg/kg. With `CC(=O)Nc1ccc(CN2CCC(CCc3ccsc3)(c3ccccn3)CC2)cc1` [Compound 184, N-(4-((4-(pyridin-2-yl)-4-(2-(thiophen-3-yl)ethyl)piperidin-1-yl)methyl)phenyl)acetamide] the ED50 was > 10 mg/kg. In the case of `CCOCC1(c2ccccn2)CCN(Cc2ccc(C)nc2C)C1` (stereo not shown) [Compound 313, 3-((3-(ethoxymethyl)-3-(pyridin-2-yl)pyrrolidin-1-yl)methyl)-2,6-dimethylpyridine], the ED50 is reported as > 10 mg/kg. `CC(=O)Nc1ccc(CN2CCC(c3ccccn3)(C(O)c3ccccc3)CC2)cc1` (stereo not shown) [Compound 45, N-(4-((4-(hydroxy(phenyl)methyl)-4-(pyridin-2-yl)piperidin-1-yl)methyl)phenyl)acetamide] was tested, and the ED50 was > 10 mg/kg. In the case of `CCOC[C@@]1(COc2ccc(F)cc2)CCN(Cc2ccc(C)nc2)C1` [Compound 426, (R)-5-((3-(ethoxymethyl)-3-((4-fluoro-phenoxy)methyl)pyrrolidin-1-yl)methyl)-2-methylpyridine], the ED50 is reported as < 10 mg/kg. With `CC(=O)Nc1ccc(CN2CCC(CCc3ccccc3)(c3cccnc3)CC2)cc1` [Compound 6] the ED50 was > 10 mg/kg. For `CCOCC1(CCc2ccccc2)CCN(Cc2ccc(NC(=O)C(F)(F)F)cc2)CC1` [Compound 115, N-(4-((4-(ethoxymethyl)-4-phenethylpiperidin-1-yl)methyl)phenyl)-2,2,2-trifluoroacetamide], the ED50 was > 10 mg/kg. In the case of `CCOCC1(CCc2cc(C)sc2C)CCN(Cc2cnn(C)c2)C1` (stereo not shown) [Compound 312, 4-((3-(2-(2,5-dimethylthiophen-3-yl)ethyl)-3-(ethoxy-methyl)pyrrolidin-1-yl)methyl)-1-methyl-1H-pyrazole], the ED50 is reported as < 10 mg/kg. With `CCOC[C@@]1(CCc2cccs2)CCN(Cc2cnn(C)c2)C1.Cl` [Compound 430, (S)-4-((3-(ethoxymethyl)-3-(2-(thiophen-2-yl)ethyl)pyrrolidin-1-yl)methyl)-1-methyl-1H-pyrazole HCl] the ED50 was < 10 mg/kg. With `CCOCC1(CCc2ccccc2)CCN(Cc2ccc(-n3ccnn3)cc2)CC1` [Compound 157] the ED50 was > 10 mg/kg. In the case of `COC(=O)C1(CCc2ccccc2)CCCN(Cc2ccc(NC(C)=O)cc2)C1` (stereo not shown) [Compound 29, methyl 1-(4-acetamidobenzyl)-3-phenethylpiperidine-3-carboxylate], the ED50 is reported as > 10 mg/kg. With `CC(=O)Nc1ccc(CN2CCC(CCc3ccccc3)(c3nnc(C)s3)CC2)cc1` [Compound 13, N-(4-((4-(5-methyl-1,3,4-thiadiazol-2-yl)-4-phenethylpiperidin-1-yl)methyl)phenyl)acetamide] the ED50 was > 10 mg/kg. In the case of `CCOCC1(CCc2ccccc2)CCN(Cc2ccc(NC=O)s2)CC1` [Compound 173, N-(5-((4-(ethoxymethyl)-4-phenethylpiperidin-1-yl)methyl)thiophen-2-yl)formamide], the ED50 is reported as > 10 mg/kg. For `COC[C@@]1(CCc2csc(C)c2)CCN(C(C)(C)c2ccc(C)nc2)C1` [Compound 383, (S)-5-(2-(3-(methoxymethyl)-3-(2-(5-methylthiophen-3-yl)ethyl)pyrrolidin-1-yl)propan-2-yl)-2-methylpyridine], the ED50 was < 10 mg/kg. `CCOCC1(CCc2ccccc2)CCN(Cc2ccc(CC(=O)OC)cc2)CC1` [Compound 181, methyl 2-(4-((4-(ethoxymethyl)-4-phenethylpiperidin-1-yl)methyl)phenyl)acetate] was tested, and the ED50 was > 10 mg/kg. With `CCOCC1(CCc2ncccn2)CCN(C(C)c2ccc(C)nc2)C1` (stereo not shown) [Compound 351, 2-(2-(3-(ethoxymethyl)-1-(1-(6-methylpyridin-3-yl)ethyl)pyrrolidin-3-yl)ethyl)pyrimidine] the ED50 was < 10 mg/kg. In the case of `CCOCC1(CCc2ccccc2)CCN(Cc2cnn(C)c2)C1` (stereo not shown) [Compound 217, 4-((3-(ethoxymethyl)-3-phenethylpyrrolidin-1-yl)methyl)-1-methyl-1H-pyrazole], the ED50 is reported as < 10 mg/kg. `CCCOCC1(CCc2ccccc2)CCN(Cc2ccc(NC(C)=O)cc2)CC1` [Compound 93, N-(4-((4-phenethyl-4-(propoxy-methyl)piperidin-1-yl)methyl)phenyl)acetamide] was tested, and the ED50 was > 10 mg/kg. `c1ccc(CCC2(C3CCCO3)CCN(Cc3ccccc3-c3ccco3)C2)cc1` (stereo not shown) [Compound 195, 1-(2-(furan-2-yl)benzyl)-3-phenethyl-3-(tetrahydrofuran-2-yl)pyrrolidine] was tested, and the ED50 was > 10 mg/kg. In the case of `CCCCC[C@]1(COCC)CCN(C(C)(C)c2ccc(C)nc2)C1.Cl` [Compound 459, (S)-5-(2-(3-(ethoxymethyl)-3-pentylpyrrolidin-1-yl)propan-2-yl)-2-methylpyridine HCl], the ED50 is reported as < 10 mg/kg. With `CCOCC1(CCc2ccccc2)CCN(Cc2ccc(NC(C)=O)cc2)C1` (stereo not shown) [Compound 96, N-(4-((3-(ethoxymethyl)-3-phenethylpyrrolidin-1-yl)methyl)phenyl)acetamide] the ED50 was < 10 mg/kg. For `COCC1(CCc2ccccc2)CCN(Cc2ccc(NC(C)=O)cc2)CC1` [Compound 72, N-(4-((4-(methoxymethyl)-4-phenethylpiperidin-1-yl)methyl)phenyl)acetamide], the ED50 was > 10 mg/kg. With `CCOCC1(/C=C/c2ccc3ccccc3c2)CCN(Cc2ccc(NC(C)=O)cc2)CC1` [Compound 168, (E)-N-(4-((4-(ethoxymethyl)-4-(2-(naphthalen-2-yl)vinyl)piperidin-1-yl)methyl)phenyl)acetamide] the ED50 was > 10 mg/kg. `CCOCC1(CCc2ccccc2)CCN(CC2CCC(NC(C)=O)CC2)CC1.Cl` (stereo not shown) [Compound 121, N-(4-((4-(ethoxymethyl)-4-phenethylpiperidin-1-yl)methyl)cyclo-hexyl)acetamide HCl] was tested, and the ED50 was > 10 mg/kg. With `CC(=O)Nc1ccc(CN2CCCC(/C=C/c3ccccc3)(c3ccccn3)C2)cc1` (stereo not shown) [Compound 71, (E)-N-(4-((3-(pyridin-2-yl)-3-styrylpiperidin-1-yl)methyl)phenyl)acetamide] the ED50 was > 10 mg/kg. `CCOCC1(CCc2cccs2)CCCN1Cc1cccnc1.Cl` (stereo not shown) [Compound 451, 3-((2-(ethoxymethyl)-2-(2-(thiophen-2-yl)ethyl)pyrrolidin-1-yl)methyl)pyridine HCl] was tested, and the ED50 was < 10 mg/kg. In the case of `Oc1ccc(CN2CCC(CCc3ccccc3)(c3ccccn3)CC2)cc1` [Compound 61, 4-((4-phenethyl-4-(pyridin-2-yl)piperidin-1-yl)methyl)phenol], the ED50 is reported as > 10 mg/kg. `CCOC[C@@]1(CCc2ccsc2)CCN(Cc2ccc(NC(C)=O)cc2)C1` [Compound 324, (S)-N-(4-((3-(ethoxymethyl)-3-(2-(thiophen-3-yl)ethyl)pyrrolidin-1-yl)methyl)phenyl)acetamide] was tested, and the ED50 was < 10 mg/kg. In the case of `CCOC(C)[C@@]1(CCc2cccs2)CCN(C(C)(C)c2ccc(C)nc2)C1` (single isomer, unassigned) [Compound 425, 5-(2-((S)-3-((S or R)-1-ethoxyethyl)-3-(2-(thiophen-2-yl)ethyl)pyrrolidin-1-yl)propan-2-yl)-2-methylpyridine], the ED50 is reported as < 10 mg/kg. With `CC(=O)Nc1ccc(CN2CCC(CCc3ccccc3)(C3CCCCO3)CC2)cc1` (stereo not shown) [Compound 70, N-(4-((4-phenethyl-4-(tetrahydro-2H-pyran-2-yl)piperidin-1-yl)methyl)phenyl)acetamide] the ED50 was > 10 mg/kg. `CCOC[C@@]1(CCc2ccc(F)s2)CCN(C(C)(C)c2ccc(C)nc2)C1` [Compound 365, (S)-5-(2-(3-(ethoxymethyl)-3-(2-(5-fluorothiophen-2-yl)ethyl)pyrrolidin-1-yl)propan-2-yl)-2-methylpyridine] was tested, and the ED50 was < 10 mg/kg. In the case of `CCOCC1(CCc2sccc2C)CCN(Cc2cccnc2)C1` (stereo not shown) [Compound 283, 3-((3-(ethoxymethyl)-3-(2-(3-methylthiophen-2-yl)ethyl)pyrrolidin-1-yl)methyl)pyridine], the ED50 is reported as < 10 mg/kg. In the case of `CC(=O)Nc1ccc(CN2CCC(CCc3cccs3)(C3CCO3)CC2)cc1` (stereo not shown) [Compound 171, N-(4-((4-(oxetan-2-yl)-4-(2-(thiophen-2-yl)ethyl)piperidin-1-yl)methyl)phenyl)acetamide], the ED50 is reported as < 10 mg/kg. `CCOC[C@@]1(CCc2ccc(F)cc2)CCN(C2(c3ccc(C)nc3)CC2)C1` [Compound 434, (S)-5-(1-(3-(ethoxymethyl)-3-(4-fluoro-phenethyl)pyrrolidin-1-yl)cyclopropyl)-2-methylpyridine] was tested, and the ED50 was < 10 mg/kg. In the case of `CC(=O)Nc1ccc(CN2CCC(CCc3ccccc3)(c3cccs3)CC2)cc1` [Compound 2], the ED50 is reported as > 10 mg/kg. For `CCOCC1(CCc2ccccc2)CCN(Cc2ccc(-c3nnc(N)o3)cc2)CC1` [Compound 187, 5-(4-((4-(ethoxymethyl)-4-phenethylpiperidin-1-yl)methyl)phenyl)-1,3,4-oxadiazol-2-amine], the ED50 was > 10 mg/kg. With `CC(=O)Nc1ccc(CN2CCC(CCc3ccccc3)(c3cc(C)co3)C2)cc1` (stereo not shown) [Compound 203, N-(4-((3-(4-methylfuran-2-yl)-3-phenethylpyrrolidin-1-yl)methyl)phenyl)acetamide] the ED50 was > 10 mg/kg. For `CCOCC1(CCc2ccsc2)CCN(Cc2cnc(C)s2)C1` (stereo not drawn) [Compound 253, 5-((3-(ethoxymethyl)-3-(2-(thiophen-3-yl)ethyl)pyrrolidin-l-yl)methyl)-2-methylthiazole], the ED50 was > 10 mg/kg. For `CCOCC1(CCc2ccccc2)CCN(Cc2ccc(CC(C)O)cc2)CC1` (stereo not shown) [Compound 163, 1-(4-((4-(ethoxymethyl)-4-phenethylpiperidin-1-yl)methyl)phenyl)propan-2-ol], the ED50 was > 10 mg/kg. In the case of `CC(=O)Nc1ccc(CN2CCC(CCc3ccccc3)(C3CCCO3)C2)cc1` (stereo not shown) [Compound 180, N-(4-((3-phenethyl-3-(tetrahydrofuran-2-yl)pyrrolidin-1-yl)methyl)phenyl)acetamide], the ED50 is reported as > 10 mg/kg.
